Assay results from BindingDB's records for doi:10.1016/j.bmcl.2006.08.080 (Johnson & Johnson Pharmaceutical, 2006).

What follows are compounds tested against T1, Aurora kinase A (Mus musculus, UniProt P97477) (assay: Aurora Kinase Inhibition Assay). Details: pH 7.5; 22 °C.
T1 sequence (P97477 whole entry): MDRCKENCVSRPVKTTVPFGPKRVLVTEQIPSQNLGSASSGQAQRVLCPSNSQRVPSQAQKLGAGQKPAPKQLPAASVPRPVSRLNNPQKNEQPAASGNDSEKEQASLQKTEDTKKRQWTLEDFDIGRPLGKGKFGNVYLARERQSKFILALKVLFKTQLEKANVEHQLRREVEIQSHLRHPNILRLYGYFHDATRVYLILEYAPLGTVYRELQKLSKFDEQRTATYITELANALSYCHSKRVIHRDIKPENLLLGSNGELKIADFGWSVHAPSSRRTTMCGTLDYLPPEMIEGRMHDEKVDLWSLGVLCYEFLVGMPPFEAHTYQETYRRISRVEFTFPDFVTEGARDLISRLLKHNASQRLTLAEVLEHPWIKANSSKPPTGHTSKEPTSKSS
Description: The compounds were tested for their ability to inhibit the phosphorylation of serine 10 of histone-H3 by purified recombinant murine Aurora-A enzyme. The phosphorylation of serine 10 was detected colorimetrically using Phospho-Histone H3 (Ser10) (6G3) Mouse mAb (9706, Cell Signaling Technologies, Danvers, MA).
Work on `CN1CCN(c2cccc(Nc3ncc4ccn(-c5cccc(C(N)=O)c5)c4n3)c2)CC1` [3-(2-{[3-(4-methylpiperazin-1-yl)phenyl]amino}-7H-pyrrolo[2,3-d]pyrimidin-7-yl)benzamide] yielded an IC50 of 11 nM. For `CN1CCN(c2cccc(Nc3ncc4ccn(-c5cccc(C#N)c5)c4n3)c2)CC1` [3-(2-{[3-(4-methylpiperazin-1-yl)phenyl]amino}-7H-pyrrolo[2,3-d]pyrimidin-7-yl)benzonitrile], the IC50 was 13 nM. `O=S1(=O)CCN(c2ccc(Nc3ncc4ccn(-c5ccccn5)c4n3)cc2)CC1` [4-(4-{[7-(pyridin-2-yl)-7H-pyrrolo[2,3-d]pyrimidin-2-yl]amino}phenyl)-1,4-thiomorpholine-1,1-dione] gave an IC50 of 0.8 nM. In the case of `O=S1(=O)CCN(c2ccc(Nc3ncc4ccn(C5CCCCC5)c4n3)cc2)CC1` [4-[4-({7-cyclohexyl-7H-pyrrolo[2,3-d]pyrimidin-2-yl}amino)phenyl]-1,4-thiomorpholine-1,1-dione], the IC50 is reported as 12 nM. `CN1CCN(c2ccc(Nc3ncc4ccn(C5Cc6ccccc6C5)c4n3)cc2)CC1` [7-(2,3-dihydro-1H-inden-2-yl)-N-[4-(4-methylpiperazin-1-yl)phenyl]-7H-pyrrolo[2,3-d]pyrimidin-2-amine] gave an IC50 of 18 nM. With `CN1CCN(c2cccc(Nc3ncc4ccn(-c5cccc(S(C)(=O)=O)c5)c4n3)c2)CC1` [7-(3-methanesulfonylphenyl)-N-[3-(4-methylpiperazin-1-yl)phenyl]-7H-pyrrolo[2,3-d]pyrimidin-2-amine] the IC50 was 10 nM. In the case of `CN1CCN(c2ccc(Nc3ncc4ccn(-c5cccc(S(C)(=O)=O)c5)c4n3)cc2)CC1` [7-(3-methanesulfonylphenyl)-N-[4-(4-methylpiperazin-1-yl)phenyl]-7H-pyrrolo[2,3-d]pyrimidin-2-amine], the IC50 is reported as 9 nM. With `COc1cccc(-n2ccc3cnc(Nc4cccc(N5CCN(C)CC5)c4)nc32)c1` [7-(3-methoxyphenyl)-N-[3-(4-methylpiperazin-1-yl)phenyl]-7H-pyrrolo[2,3-d]pyrimidin-2-amine] the IC50 was 6 nM. Compound `COc1cccc(-n2ccc3cnc(Nc4ccc(N5CCN(C)CC5)cc4)nc32)c1` [7-(3-methoxyphenyl)-N-[4-(4-methylpiperazin-1-yl)phenyl]-7H-pyrrolo[2,3-d]pyrimidin-2-amine] has an IC50 of 18 nM. Compound `c1cc(N2CCOCC2)ccc1Nc1ncc2ccn(C3CCCCC3)c2n1` [7-cyclohexyl-N-[4-(morpholin-4-yl)phenyl]-7H-pyrrolo[2,3-d]pyrimidin-2-amine] has an IC50 of 49 nM. `CN1CCN(c2ccc(Nc3ncc4ccn(C5CC6CCC5C6)c4n3)cc2)CC1` (stereo not given) [7-{bicyclo[2.2.1]heptan-2-yl}-N-[4-(4-methylpiperazin-1-yl)phenyl]-7H-pyrrolo[2,3-d]pyrimidin-2-amine] showed an IC50 of 39 nM. With `CN1CCN(c2cccc(Nc3ncc4ccn(-c5ccccn5)c4n3)c2)CC1` [N-[3-(4-methylpiperazin-1-yl)phenyl]-7-(pyridin-2-yl)-7H-pyrrolo[2,3-d]pyrimidin-2-amine] the IC50 was 5 nM. With `CN1CCN(c2cccc(Nc3ncc4ccn(-c5cccnc5)c4n3)c2)CC1` [N-[3-(4-methylpiperazin-1-yl)phenyl]-7-(pyridin-3-yl)-7H-pyrrolo[2,3-d]pyrimidin-2-amine] the IC50 was 12 nM. Work on `CC(C)c1cccc(-n2ccc3cnc(Nc4cccc(N5CCN(C)CC5)c4)nc32)c1` [N-[3-(4-methylpiperazin-1-yl)phenyl]-7-[3-(propan-2-yl)phenyl]-7H-pyrrolo[2,3-d]pyrimidin-2-amine] yielded an IC50 of 29 nM. In the case of `CN1CCN(c2cccc(Nc3ncc4ccn(-c5ccccc5)c4n3)c2)CC1` [N-[3-(4-methylpiperazin-1-yl)phenyl]-7-phenyl-7H-pyrrolo[2,3-d]pyrimidin-2-amine], the IC50 is reported as 3 nM. Compound `CN1CCN(c2ccc(Nc3ncc4ccn(-c5cccnc5)c4n3)cc2)CC1` [N-[4-(4-methylpiperazin-1-yl)phenyl]-7-(pyridin-3-yl)-7H-pyrrolo[2,3-d]pyrimidin-2-amine] has an IC50 of 13 nM. Work on `COc1cc2c(Nc3ccc(NC(=O)c4ccccc4)cc3)ncnc2cc1OCCCN1CCOCC1` [N-[4-({6-methoxy-7-[3-(morpholin-4-yl)propoxy]quinazolin-4-yl}amino)phenyl]benzamide] yielded an IC50 of 39 nM. With `CN1CCN(c2cccc(Nc3ncc4ccn(-c5cccc(C(=O)NC6CCCC6)c5)c4n3)c2)CC1` [N-cyclopentyl-3-(2-{[3-(4-methylpiperazin-1-yl)phenyl]amino}-7H-pyrrolo[2,3-d]pyrimidin-7-yl)benzamide] the IC50 was 820 nM. Work on `COCCN1CCN(Nc2ncc3ccn(C4CCCCC4)c3n2)CC1` [N-{7-cyclohexyl-7H-pyrrolo[2,3-d]pyrimidin-2-yl}-4-(2-methoxyethyl)piperazin-1-amine] yielded an IC50 of 6 nM.

What follows are compounds tested against Receptor-type tyrosine-protein kinase FLT3 (Homo sapiens, UniProt P36888) (assay: FLT3 Inhibition Assay). Details: not given.
Sequence of Receptor-type tyrosine-protein kinase FLT3 (P36888 whole entry, looked up): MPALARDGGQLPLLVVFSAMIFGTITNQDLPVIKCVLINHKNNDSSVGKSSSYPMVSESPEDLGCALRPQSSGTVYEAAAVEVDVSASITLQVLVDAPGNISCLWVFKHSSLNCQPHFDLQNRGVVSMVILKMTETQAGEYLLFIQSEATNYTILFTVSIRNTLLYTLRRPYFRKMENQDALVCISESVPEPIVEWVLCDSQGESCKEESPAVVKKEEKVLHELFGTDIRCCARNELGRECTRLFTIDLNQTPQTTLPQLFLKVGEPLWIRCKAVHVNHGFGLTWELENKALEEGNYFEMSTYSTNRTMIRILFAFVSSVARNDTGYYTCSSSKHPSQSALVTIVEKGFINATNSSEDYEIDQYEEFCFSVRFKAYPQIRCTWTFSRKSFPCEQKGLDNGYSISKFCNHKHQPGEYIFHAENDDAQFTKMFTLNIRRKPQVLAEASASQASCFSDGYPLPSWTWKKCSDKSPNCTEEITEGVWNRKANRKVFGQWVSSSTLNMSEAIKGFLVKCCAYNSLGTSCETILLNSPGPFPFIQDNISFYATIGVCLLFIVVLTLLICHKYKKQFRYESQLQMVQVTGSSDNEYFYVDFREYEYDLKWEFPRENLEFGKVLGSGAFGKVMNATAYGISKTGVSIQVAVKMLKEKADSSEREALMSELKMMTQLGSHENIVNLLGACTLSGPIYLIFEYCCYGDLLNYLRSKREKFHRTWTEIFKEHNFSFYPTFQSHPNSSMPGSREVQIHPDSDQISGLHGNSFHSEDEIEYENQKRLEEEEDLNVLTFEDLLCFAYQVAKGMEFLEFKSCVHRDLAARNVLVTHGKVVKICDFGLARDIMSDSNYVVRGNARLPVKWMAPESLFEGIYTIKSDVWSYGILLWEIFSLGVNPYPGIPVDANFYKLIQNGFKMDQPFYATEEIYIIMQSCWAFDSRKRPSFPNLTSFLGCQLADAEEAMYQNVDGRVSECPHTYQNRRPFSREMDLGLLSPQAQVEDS
Description: The compounds were tested for their ability to inhibit the phosphorylation of poly(Glu:Tyr) by purified recombinant human FLT3. The extent of phosphorylation was quantitated by a fluorescent polarization competition immunoassay (Ex: 485 nm, Em:530 nm) using an anti-phosphotyrosine antibody and a phosphotyrosine tracer (Green Tyrosine Kinase Assay Kit, PanVera P2837).
With `O=S1(=O)CCN(c2ccc(Nc3ncc4ccn(-c5ccccn5)c4n3)cc2)CC1` [4-(4-{[7-(pyridin-2-yl)-7H-pyrrolo[2,3-d]pyrimidin-2-yl]amino}phenyl)-1,4-thiomorpholine-1,1-dione] the IC50 was < 1 nM.
